Assay results: ChEMBL document CHEMBL5724696, “Autophagy assay results for EUbOPEN Chemogenomics Library” (2024)
Values joined by “and” are separate entries in the source; they are usually repeats but may differ in a detail not shown here. Identical values can stand only once.

Legend:
Assay type in all cases: functional, Homo sapiens
U2OS [1] = test: (§1) Here: values are normalized to the negative (DMSO; defined as 0% autophagy induction) and positive (250nM Torin1; mTOR inhibitor; defined as maximal inducer of autophagy = 100%) control compounds and represented as % of autophagy induction. […] The impact of autophagy induction on cells is complex and depends on the affected target. As such, the magnitude of a phenotype may not be equally mirrored in the %-value of autophagy induction and vice versa. The dynamics of the induction may indicate the mode of activation: e.g. activation via phosphorylation or a signaling cascade may occur fast, while activation via transcription factors may take considerably longer. […] Of note, treatment concentrations may be sub-optimal for specific compounds, leading to false negative annotations.; conditions: Culturing Media DMEM, 1 % Penicillin/Streptomycin, 10% Fetal bovin serum Add-On: No, Screening Media Control DMEM, Screening Media Samples DMEM
U2OS [2] = test: as §1; conditions: Culturing Media DMEM, 1 % Penicillin/Streptomycin, 10% Fetal bovin serum Add-On: No, Screening Media Control DMEM, Screening Media Samples DMEM; remark: listed apart in the source
TERT-RPE1 = test: as §1; conditions: Culturing Media DMEM/F12 (1:1), 1 % Penicillin/Streptomycin, 10% Fetal bovin serum Add-On: No, Screening Media Control DMEM/F12 (1:1), Screening Media Samples DMEM/F12 (1:1)
[3] = Compound Concentration 0.5 uM, Timepoint 12 hours
[4] = Compound Concentration 0.5 uM, Timepoint 24 hours
[5] = Compound Concentration 0.5 uM, Timepoint 36 hours
[6] = Compound Concentration 0.5 uM, Timepoint 60 hours
[7] = Compound Concentration 2 uM, Timepoint 12 hours
[8] = Compound Concentration 2 uM, Timepoint 24 hours
[9] = Compound Concentration 2 uM, Timepoint 36 hours
[10] = Compound Concentration 2 uM, Timepoint 60 hours
[11] = Compound Concentration 10 uM, Timepoint 12 hours
[12] = Compound Concentration 10 uM, Timepoint 24 hours
[13] = Compound Concentration 10 uM, Timepoint 36 hours
[14] = Compound Concentration 10 uM, Timepoint 60 hours

Structure (SMILES) | autophagy induction (U2OS [1]; [3]) [%] | autophagy induction (U2OS [1]; [4]) [%] | autophagy induction (U2OS [1]; [5]) [%] | autophagy induction (U2OS [1]; [6]) [%] | autophagy induction (U2OS [1]; [7]) [%] | autophagy induction (U2OS [1]; [8]) [%] | autophagy induction (U2OS [1]; [9]) [%] | autophagy induction (U2OS [1]; [10]) [%] | autophagy induction (U2OS [1]; [11]) [%] | autophagy induction (U2OS [1]; [12]) [%] | autophagy induction (U2OS [1]; [13]) [%] | autophagy induction (U2OS [1]; [14]) [%] | autophagy induction (U2OS [2]; [3]) [%] | autophagy induction (U2OS [2]; [4]) [%] | autophagy induction (U2OS [2]; [5]) [%] | autophagy induction (U2OS [2]; [6]) [%] | autophagy induction (U2OS [2]; [7]) [%] | autophagy induction (U2OS [2]; [8]) [%] | autophagy induction (U2OS [2]; [9]) [%] | autophagy induction (U2OS [2]; [10]) [%] | also measured
CCCCCCCCCCCCCCCCOC[C@H](COP(=O)([O-])OCC[N+](C)(C)C)OC(C)=O | 1.863 | 3.665 | -3.033 | -9.658 | 2.298 | -2.882 | -2.921 | -2.8 | 10.6263 | 0.8651 | 6.18 | 5.674 | 2.963 | 0.1782 | 2280.79 | -1.799 | -5.387 | -3.326 | 2231.79 | -1.895 | autophagy induction (U2OS [2]; [11]): -2.708%; autophagy induction (U2OS [2]; [12]): -1.793%; autophagy induction (U2OS [2]; [13]): 678.152%; autophagy induction (U2OS [2]; [14]): 1.655%; autophagy induction (TERT-RPE1; Compound Concentration 0.5 uM, Timepoint 12 hours, 12 h, 0.5 µM): -0.9527% and 1.704%; autophagy induction (TERT-RPE1; Compound Concentration 0.5 uM, Timepoint 24 hours, 24 h, 0.5 µM): -3.436% and -0.1454%; autophagy induction (TERT-RPE1; Compound Concentration 0.5 uM, Timepoint 36 hours, 36 h, 0.5 µM): -3.259% and 2.221%; autophagy induction (TERT-RPE1; Compound Concentration 0.5 uM, Timepoint 60 hours, 60 h, 0.5 µM): -5.529% and 3.615%; autophagy induction (TERT-RPE1; Compound Concentration 2 uM, Timepoint 24 hours, 24 h, 2 µM): -0.2119% and 13.6511%; autophagy induction (TERT-RPE1; Compound Concentration 2 uM, Timepoint 36 hours, 36 h, 2 µM): -1.573% and 9.518%; autophagy induction (TERT-RPE1; Compound Concentration 2 uM, Timepoint 60 hours, 60 h, 2 µM): -2.541% and 14.6368%; autophagy induction (TERT-RPE1; Compound Concentration 10 uM, Timepoint 12 hours, 12 h, 10 µM): 8.2187% and 7.039%; autophagy induction (TERT-RPE1; Compound Concentration 10 uM, Timepoint 24 hours, 24 h, 10 µM): 4.065% and 6.451%; autophagy induction (TERT-RPE1; Compound Concentration 10 uM, Timepoint 36 hours, 36 h, 10 µM): 4.665% and 7.035%; autophagy induction (TERT-RPE1; Compound Concentration 10 uM, Timepoint 60 hours, 60 h, 10 µM): 6.217% and 11.8263%
O=C(Cc1ccccc1)Nc1nc2ccc(Cl)cc2c2nc(-c3ccco3)nn12 | 4.486 | 1.051 | 3.966 | 7.125 | -5.124 | -1.574 | -4.263 | 4.935 | -2.171 | -3.2492 | 0.6441 | 10.7185 | -1.429 | -4.076 | -2.306 | 0.1335 | -7.203 | -1.219 | -0.343 | -0.2104 | autophagy induction (U2OS [2]; [11]): -51.1859%; autophagy induction (U2OS [2]; [12]): -16.9004%; autophagy induction (U2OS [2]; [13]): -8.178%; autophagy induction (U2OS [2]; [14]): -3.011%; autophagy induction (TERT-RPE1; [3]): -7.39%; autophagy induction (TERT-RPE1; [4]): -10.3716%; autophagy induction (TERT-RPE1; [5]): -15.7815%; autophagy induction (TERT-RPE1; [6]): -15.2628%; autophagy induction (TERT-RPE1; [7]): -6.9816%; autophagy induction (TERT-RPE1; [8]): -7.632%; autophagy induction (TERT-RPE1; [9]): -7.871%; autophagy induction (TERT-RPE1; [10]): -12.6626%; autophagy induction (TERT-RPE1; [11]): -9.4005%; autophagy induction (TERT-RPE1; [12]): 10.615%; autophagy induction (TERT-RPE1; [13]): 24.2695%; autophagy induction (TERT-RPE1; [14]): 38.8225%
